Experimental data from PMC3108181 (Biochimica et biophysica acta, 2011).
“And” between values parts separate entries of the source, which are not always exact repeats. Identical values can stand only once. “Also recorded” adds a separate entry of the source. Like-named read-outs stand apart in the source and are kept apart here. Each block holds one compound with its values, some of them ahead of it.

Tests used:
[1] = test system: Complex III: ubiquinol: ferricytochrome C oxidoreductase; experiment: Complex III activity in lysed rat brain mitochondria; assay type: biochemical; details: for Inhibition of complex III activity: myxothiazol (60uM) and antimycin A (0.002mg/ml) together, parallel control
[2] = target: Complex II: succinate:ubiquinone oxidoreductase (Rattus norvegicus, UniProt P21913+Q641Z9+Q6PCT8+Q920L2); experiment: Complex II activity; assay type: biochemical; details: for Effect on complex II activity: lysed rat brain mitochondria, 15 min pre-incubation at room temperature, malonate sensitive activity
Sequence of Complex II: succinate:ubiquinone oxidoreductase (Q920L2 35-656): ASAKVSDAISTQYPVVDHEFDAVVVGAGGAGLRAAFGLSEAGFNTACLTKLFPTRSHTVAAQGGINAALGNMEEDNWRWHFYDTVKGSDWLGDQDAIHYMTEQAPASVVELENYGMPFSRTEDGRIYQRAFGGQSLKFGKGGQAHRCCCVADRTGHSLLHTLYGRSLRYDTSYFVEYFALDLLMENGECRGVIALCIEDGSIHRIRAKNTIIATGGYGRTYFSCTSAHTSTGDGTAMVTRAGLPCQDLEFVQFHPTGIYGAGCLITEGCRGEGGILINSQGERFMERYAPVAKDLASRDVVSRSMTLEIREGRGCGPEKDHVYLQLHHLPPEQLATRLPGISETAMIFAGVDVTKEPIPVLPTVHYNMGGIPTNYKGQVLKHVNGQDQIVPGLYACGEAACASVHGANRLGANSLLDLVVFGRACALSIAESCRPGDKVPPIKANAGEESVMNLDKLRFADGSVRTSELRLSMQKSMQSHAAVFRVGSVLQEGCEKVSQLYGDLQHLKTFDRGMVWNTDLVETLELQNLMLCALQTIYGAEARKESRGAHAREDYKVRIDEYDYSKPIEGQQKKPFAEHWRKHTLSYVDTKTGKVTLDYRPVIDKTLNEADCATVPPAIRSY
Sequence of Complex II: succinate:ubiquinone oxidoreductase (P21913 31-282): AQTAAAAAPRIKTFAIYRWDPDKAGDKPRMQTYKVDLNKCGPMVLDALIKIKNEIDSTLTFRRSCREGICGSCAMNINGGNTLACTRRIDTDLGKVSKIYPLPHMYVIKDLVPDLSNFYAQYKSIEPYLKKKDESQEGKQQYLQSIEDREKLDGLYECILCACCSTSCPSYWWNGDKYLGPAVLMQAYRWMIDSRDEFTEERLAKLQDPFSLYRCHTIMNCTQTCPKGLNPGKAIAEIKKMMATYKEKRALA
Sequence of Complex II: succinate:ubiquinone oxidoreductase (Q641Z9 1-169): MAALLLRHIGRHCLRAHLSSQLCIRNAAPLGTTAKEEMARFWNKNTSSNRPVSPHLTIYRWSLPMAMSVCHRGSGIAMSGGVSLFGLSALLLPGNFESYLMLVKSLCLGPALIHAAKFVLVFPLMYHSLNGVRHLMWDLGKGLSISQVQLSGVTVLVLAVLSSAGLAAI
Sequence of Complex II: succinate:ubiquinone oxidoreductase (Q6PCT8 57-159): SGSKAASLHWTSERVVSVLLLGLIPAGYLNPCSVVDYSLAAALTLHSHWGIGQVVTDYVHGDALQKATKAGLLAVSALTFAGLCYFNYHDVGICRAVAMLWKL

[3] = test system: Complex IV: ferrocytochrome C oxidase:oxygen oxidoreductase; experiment: Complex IV activity in lysed rat brain mitochondria; assay type: biochemical; details: for Effect on complex IV activity: lysed rat brain mitochondria, 15 min pre-incubation at room temperature; for Prevention of the complex IV inhibition observed with DAH: (2U) SOD plus (2U) Cat, 10 uM pargyline and 10 uM clorgyline, DTT 50 uM, data not shown
complex I = details: cited from earlier work
[4] = test system: Complex II/III: succinate:cytochrome C-oxidoreductase; experiment: Complex II/III activity in lysed rat brain mitochondria; assay type: biochemical
[5] = test system: Complex I: NADH:ubiquinone oxidoreductase; experiment: Complex I activity in lysed rat brain mitochondria; assay type: biochemical; details: for Effect on complex I activity: lysed rat brain mitochondria, 30 min pre-incubation (same with no pre-incubation)
complex IV = details: cited from earlier work; for Inhibition of complex IV: 400 uM DA, 2 hrs of incubation
[6] = test system: NADH-Oxidase (complexes I, III and IV); experiment: NADH-oxidase activity in lysed rat brain mitochondria; assay type: biochemical
[7] = test system: Complex I/III: NADH:cytochrome C-oxidoreductase; experiment: Complex I/III activity in lysed rat brain mitochondria; assay type: biochemical
[8] = read-out: Inhibition of complex II activity

Compound: CO/C(=C/C(N)=O)[C@H](C)[C@H](/C=C/c1csc(-c2csc([C@@H](C)/C=C/C=C/C(C)C)n2)n1)OC [myxothiazol]
Inhibition of complex III activity [1]: ≥ 95%

Compound: O=C(O)CC1=CC(=O)C(=O)C=C1 [DOPAC-Q]
Effect on complex II activity [2]: did not attenuate; also recorded: No effect up to 400 uM
IC50 ([1]; read-out: IC50 for inhibition of complex III activity, 15 min pre-incubation at room temperature, mean ± SEM): 110 µM
Effect on complex IV activity [3]: did not inhibit; also recorded: No effect up to 400 uM

Compound: CC(=O)N(O)CCCCCNC(=O)CCC(=O)N(O)CCCCCNC(=O)CCC(=O)N(O)CCCCCN [desferoxamine, reference compound]
Attenuation of DA mediated inhibition of complex I activity (complex I): partially attenuated

Compound: O=C(O)Cc1ccc(O)c(O)c1 [DOPAC-H, 3,4-dihydroxyphenylacetic acid]
Effect on complex II/III activity ([4]; lysed rat brain mitochondria, 15 min exposure at room temperature, inhibitor corrected rates): did not significantly inhibit
Effect on complex II activity [2]: not significantly affected; also recorded: not attenuated; also recorded: No effect at 1mM
Effect on complex IV activity [3]: not affected; also recorded: No effect at 1mM
Effect on complex I activity [5]: not affected; also recorded: No effect at 1mM
Effect on complex IV activity (complex IV; 400 uM DOPAC, rat brain mitochondria, 2 hr pre-incubation): only marginal effects

Inhibition of complex II activity ([2]; malonate 10mM, parallel control): 90–95%
Compound: O=C(O)CC(=O)O [malonate, reference compound]

Compound: C=C(C)[C@H]1Cc2c(ccc3c2O[C@@H]2COc4cc(OC)c(OC)cc4[C@@H]2C3=O)O1 [rotenone, reference compound]
Inhibition of NADH-oxidase activity [6]: ≥ 90%
Inhibition of complex I/III activity [7]: ≥ 95%

Compound: NCCc1ccc(O)c(O)c1 [DAH, dopamine]
Effect on complex II/III activity [4]: inhibited complex II/III activity to a similar extent as was observed with complex II alone
Effect on complex II activity [2]: Significantly inhibited at 500 uM and 1mM
inhibition at 500 µM [2, 8]: 32.7 ± 2%
inhibition at 1000 µM [2, 8]: 41.9 ± 5.5%
IC50 (complex I; read-out: IC50 for inhibition of complex I): 8 to 12 µM and 8.12 µM
Complex IV activity, % of control ([3]; 1 mM DAH, concluded to be an artifact (back reaction with oxidized cytochrome C)): 61 % of control
Effect on complex IV activity [3]: Inhibited at 1mM due to artifactual competing back reaction between oxidized cytochrome C and reduced dopamine
Complex I/III activity, mean % of control ([7]; 200 uM DA plus tyrosinase (25U) alone (DAQ), ± sem): 7 % of control
Effect on complex I activity [5]: not affected; also recorded: No effect at 1mM
Inhibition of complex IV (complex IV; ref 29): 62.8%
Inhibition of complex IV (complex IV; ref 30): 57%
Effect on complex IV (complex IV; DA up to 1mM, 1 min incubation): no inhibition

Compound: CCCCCC[C@H]1C(=O)O[C@H](C)[C@H](NC(=O)c2cccc(NC=O)c2O)C(=O)O[C@@H](C)[C@@H]1OC(=O)CC(C)C [antimycin A]
Inhibition of complex III activity [1]: ≥ 95%

Prevention of the complex IV inhibition observed with DAH ([3]; 1 mM DAH): not prevented
Compound: C#CCN(C)CCCOc1ccc(Cl)cc1Cl [clorgyline, reference compound]

Compound: O[C@@H](CS)[C@@H](O)CS [DTT, dithioreitol, reference compound]
Prevention of the complex IV inhibition observed with DAH ([3]; 1 mM DAH): not prevented

Prevention of the complex IV inhibition observed with DAH ([3]; 1 mM DAH): not prevented
Compound: C#CCN(C)Cc1ccccc1 [pargyline, reference compound]

Prevention of the complex IV inhibition observed with DAH ([3]; 1 mM DAH): not prevented
Compound: catalase
Prevention of DAQ mediated inhibition of complex I ([5]; 50 uM DAQ plus SOD [2U] and catalase [1U] together): did not prevent
